Earlier results in patent US9078816B2, “Buccal, polar and non-polar spray containing ondansetron” (Suda Ltd., priority 1997, dated 2015).

Columns and labels:
[1] = include headaches, constipation, and dizziness

metabolism (liver): extensively metabolized by the liver | oral bioavailability (oral administration): about 60%
SMILES: Cc1nccn1CC1CCc2c(c3ccccc3n2C)C1=O (stereo not drawn) [Ondansetron]
adverse effects [1]: mild
